Assay results reported in US4065354A, “Lysozyme conjugates for enzyme immunoassays” (priority 1975, dated 1977).

Tests used:
amphetamine antibody = assay: amphetamine lysozyme conjugate enzyme immunoassay, cross-reactivity; type: binding; details: related to 1μg/ml amphetamine; 50μl of urine
Method: The next drug to be considered is amphetamine. Again, the same procedure is employed for lysozyme as for the prior assays, except that 50μl of urine is employed. The relative reactivity is related to 1μg/ml amphetamine.

morphine antibodies [1] = assay: homogeneous enzyme immunoassay with morphine conjugate to lysozyme, cross-reactivity
methadone antibody = assay: methadone lysozyme conjugate enzyme immunoassay (sensitivity, cross-reactivity); details: relative to methadone at 0.5μg/ml; ratio of concentrations giving the same optical density reading
thyroxine antibodies = assay: activity of thyroxine-lysozyme conjugate (Example 17), inhibition by antibody, return by thyroxine; type: biochemical
morphine antibodies [2] = assay: inhibition of Example 2 morphine-lysozyme conjugate by antibody and recovery by morphine; type: biochemical
[3] = compound concentration 0.3 μg/ml
[4] = compound concentration 300 μg/ml

CNC(C)CC1CCCC1 (stereo not drawn) [Cyclopentamine]
Relative Reactivity (amphetamine antibody): 0.33

CC(CCc1ccccc1)NC(C)C(O)c1ccc(O)cc1 (stereo not drawn) [Nylidrin]
Relative Reactivity (amphetamine antibody): 0.27

Hydromorphine
Percent max. rate (morphine antibodies [1]; [3]): 6%
Percent max. rate (morphine antibodies [1]; compound concentration 3 μg/ml): 55%

CCC1(c2ccccc2)C(=O)NC(=O)NC1=O [Phenobarbital]
Percent max. rate (morphine antibodies [1]; [4]): 0%

CNC(C)(C)Cc1ccccc1 [Mephentermine]
Relative Reactivity (amphetamine antibody): 0.62

COc1ccc2c(c1)[C@]13CCCC[C@@H]1[C@H](C2)N(C)CC3 [Dextromethorphan]
Relative Reactivity (methadone antibody): 0.0042

17: thyroxine methyl ester diglycolic acid derivative conjugated to lysozyme [Example 17]
inhibition by thyroxine antibodies (thyroxine antibodies): could be inhibited by thyroxine antibodies
activity after addition of thyroxine (thyroxine antibodies; antibody-inhibited conjugate): activity returned by the addition of thyroxine
enzyme activity of the conjugate (thyroxine antibodies; product after dialysis and centrifugation): active

COC(=O)[C@H]1[C@@H](OC(=O)c2ccccc2)C[C@@H]2CC[C@H]1N2C [Cocaine]
Percent max. rate (morphine antibodies [1]; [4]): 2%

CN1CC[C@]23c4c5ccc(O)c4O[C@H]2[C@@H](O)C=C[C@H]3[C@H]1C5 [Morphine]
Percent max. rate (morphine antibodies [1]; [3]): 5%
Percent max. rate (morphine antibodies [1]; compound concentration 3 μg/ml): 67%

CC(CN1c2ccccc2Sc2ccccc21)N(C)C (stereo not drawn) [Phenergan]
Relative Reactivity (methadone antibody): 0.0125

COc1ccc2c3c1O[C@H]1[C@@H](O)C=C[C@H]4[C@@H](C2)N(C)CC[C@@]341 [Codeine]
Percent max. rate (morphine antibodies [1]; [3]): 7%
Percent max. rate (morphine antibodies [1]; compound concentration 3 μg/ml): 90%

CCC(=O)C(CC(C)N(C)C)(c1ccccc1)c1ccccc1 (stereo not drawn) [Methadone]
Percent max. rate (morphine antibodies [1]; compound concentration 30 μg/ml (8.7 × 10^-5 M)): 1%
Relative Reactivity (methadone antibody): 1

CN(C)CCCN1c2ccccc2Sc2ccc(Cl)cc21 [Thorazine]
Percent max. rate (morphine antibodies [1]; compound concentration 35 μg/ml (9.9 × 10^-5 M)): 6%

CC(COc1ccccc1)NC(C)C(O)c1ccc(O)cc1 (stereo not drawn) [Isoxsuprine]
Relative Reactivity (amphetamine antibody): 0.2

Morphine glucuronide
Percent max. rate (morphine antibodies [1]; [3]): 4%
Percent max. rate (morphine antibodies [1]; compound concentration 10 μg/ml (2.1 × 10^-5 M)): 77%

CN(C)CCCN1c2ccccc2Sc2ccc(Cl)cc21 [Chlorpromazine]
Relative Reactivity (methadone antibody): 0.011

CCC(=O)O[C@](Cc1ccccc1)(c1ccccc1)[C@H](C)CN(C)C [Darvon]
Percent max. rate (morphine antibodies [1]; [4]): 4%

CN[C@@H](C)[C@H](O)c1ccccc1 [Ephedrine]
Relative Reactivity (amphetamine antibody): 0.22

CC(N)C(O)c1ccccc1 (stereo not drawn) [Phenylpropanolamine]
Relative Reactivity (amphetamine antibody): 0.33

2: 0^3 -methoxyimidoylmethylmorphine conjugated to lysozyme [Example 2]
recovery of enzyme activity upon addition of aqueous morphine (morphine antibodies [2]; antibody-inhibited conjugate): full recovery of activity
inhibition of conjugate enzyme activity by morphine antibodies (morphine antibodies [2]; dialysate of Example 2): could be inhibited by morphine antibodies

CNC(C)CC1CCCCC1 (stereo not drawn) [Propylhexedrine]
Relative Reactivity (amphetamine antibody): 0.05

CCC(=O)O[C@](Cc1ccccc1)(c1ccccc1)[C@H](C)CN(C)C [Dextropropoxyphene]
Relative Reactivity (methadone antibody): 0.00089

NCCc1ccccc1 [Phenethylamine]
Relative Reactivity (amphetamine antibody): 0.2

CC(C)(N)Cc1ccccc1 [phentermine]
Relative Reactivity (amphetamine antibody): 0.62

CC(N)Cc1ccc(O)cc1 (stereo not drawn) [p-Hydroxyamphetamine]
Relative Reactivity (amphetamine antibody): 0.022

CC(C)=CCN1CCC2(C)c3cc(O)ccc3CC1C2C (stereo not drawn) [Pentazocine]
Percent max. rate (morphine antibodies [1]; [4]): 3%

CN[C@@H](C)Cc1ccccc1 [Methamphetamine]
Relative Reactivity (amphetamine antibody): 1.1

CC(N)Cc1ccccc1 (stereo not drawn) [Amphetamine]
Relative Reactivity (amphetamine antibody): 1
